Laboratory results taken from PubChem BioAssay AID1159563 (GlaxoSmithKline (GSK), 2015).
The source made the active and inactive calls. The rule behind the calls is not given here.

system: HepG2 cytotoxicity; assay: human hepatoma cell viability loss – cytotoxicity control (AID 1159563)

Compound | IC50
COc1ccc(C(=O)NC2CCN(CCn3c(=O)ccc4ncc(F)cc43)CC2)cc1Cl | > 100 µM (inactive)
O=C(Cc1ccc2c(c1)CCC2)Nc1n[nH]c(-c2ccccn2)n1 | 50 µM
CCCc1cc(N)nc(-c2cc(CCC)cc(N)n2)c1 | 32 µM
O=c1ccc2ccc(F)c3c2n1C[C@H]3CN1CCC(NCc2cc3ccccc3o2)CC1 | 40 µM
Cc1ccc(S(=O)(=O)Nc2ccc(CN3CCN(C(=O)c4cccc(C#N)c4)CC3)cc2)cc1 | > 100 µM (inactive)
COc1ccccc1-n1c(SCC(=O)Nc2ccc3c(c2)OCO3)nc2c(c1=O)SCC2 | > 100 µM (inactive)
COc1ccc(CNc2cc(C3CC3)nc(-c3nccn3C)n2)cc1 | 25 µM
N#Cc1cc(-c2ccnc(Nc3cccc(CN4CCOCC4)c3)n2)ccc1NCCN | 50 µM
CCOc1ccc2nc(NC(=O)c3ccc([N+](=O)[O-])s3)sc2c1 | 32 µM
Cc1cc(NC(=O)c2ccc([N+](=O)[O-])s2)ccc1Br | 40 µM
O=C(CC1(O)C(=O)N(Cc2ccccc2)c2ccc(Br)cc21)c1cccnc1 (centres undefined) | 63 µM
OCCCNc1nc(Nc2ccncc2)nc2ccccc12 | > 100 µM (inactive)
CC(=O)Nc1ccc(-c2ccnc(Nc3cccc(C#N)c3)n2)cc1 | > 100 µM (inactive)
CN(Cc1ccc(F)cc1)c1ccc(OCC(=O)N2CCCCC2c2cccnc2)nn1 (centres undefined) | > 100 µM (inactive)
COc1cnc2ccc(=O)n(CCN3CCC(NC(=O)Cc4ccc(Cl)c(Cl)c4)CC3)c2c1 | 63 µM
COc1ccc(S(=O)(=O)Nc2ccc(CN3CCN(C(=O)c4cccc(C#N)c4)CC3)cc2)cc1 | > 100 µM (inactive)
COc1cccc(C(=O)[C@H]2C[C@@H]2CN(Cc2cccnc2)Cc2cccnc2)c1 | > 100 µM (inactive)
CN(C)Cc1ccc(-c2ccc(S(=O)(=O)NCC3CCCO3)c(F)c2)cc1 (centres undefined) | > 130 µM (inactive)
CC(C)c1sc(Cl)nc1C(=O)NCCc1nc(C(=O)Nc2ccc3c(c2)OCO3)cs1 | > 100 µM (inactive)
O=C(Nc1nc2ccccc2[nH]1)c1c(O)c2cccc3c2n(c1=O)CC3 | 10 µM

Compound | IC50
O=[N+]([O-])c1ccc(-c2nnn(-c3cccnc3)n2)o1 | > 100 µM (inactive)
O=C(COc1ncnc2cc([N+](=O)[O-])ccc12)NC(=O)NC1CCCCC1 | > 100 µM (inactive)
CCCCNc1nccc(-c2c(-c3ccc(F)cc3)nn3c(N4CCOCC4)cccc23)n1 | > 100 µM (inactive)
CCCn1c(NC(=O)CCn2cc(Br)cn2)nc2ccccc21 | > 100 µM (inactive)
COc1ccccc1C=CCN1C[C@H]2CCC[C@@H](C1)C2(O)c1cccnc1 (some centres undefined) | > 100 µM (inactive)
CCN(CC)c1nc(N(C)C)nc2c1CN(Cc1ccccc1)CC2 | 63 µM
Nc1nccc(-c2csc(Nc3ccc(Cl)cc3)n2)n1 | > 100 µM (inactive)
O=C1NCCn2ccc(Nc3nc(NC4CCC(O)CC4)ncc3Cl)c21 (centres undefined) | > 100 µM (inactive)
N#Cc1nc(C=Cc2ccccc2)oc1NCc1cccnc1 | > 100 µM (inactive)
Clc1ccc(CN2CCN(C3=NCCN3)CC2)cc1Cl | 63 µM
Cc1[nH]nc(Nc2ccnc3[nH]ccc23)c1C | > 100 µM (inactive)
O=[N+]([O-])c1cccc(Nc2cncc(-c3ccccc3CO)c2)c1 | > 100 µM (inactive)
COc1cc(-c2noc(CC#N)n2)ccc1OC(F)F | > 100 µM (inactive)
CC1=C(C(=O)Nc2ccc(Cl)cc2)C(c2ccncc2)n2ncc(C(=O)Nc3ccccc3)c2N1 (centres undefined) | 79 µM
CNS(=O)(=O)c1ccccc1Nc1nc(Nc2ccnn2C)ncc1Cl | 50 µM
CNc1cncc(C2CCCN2C(=O)Cc2coc3cc(C)ccc23)n1 (centres undefined) | > 100 µM (inactive)
COc1ccc(CN2C(=O)C(O)(CC(=O)c3ccncc3)c3cc(Br)ccc32)cc1OC (centres undefined) | 40 µM
CC(C)N(C(=O)CN1C(=O)C(N)C(=O)N(c2ccccc2)c2ccccc21)c1ccccc1 (centres undefined) | > 100 µM (inactive)
O=c1cc(NCCCNCc2c[nH]c3ccc(Br)cc23)[nH]c2ccccc12 | > 100 µM (inactive)
